1 compound from patent publication US7449466B2, “Cyclic aminophenyl sulfamate derivative” (Aska Pharmaceutical Co., Ltd., priority 2003, dated 2008) can be followed below.

The target of experiment [1] is T1, steroid sulfatase (Homo sapiens, UniProt P08842).
T1 sequence (P08842 22-583): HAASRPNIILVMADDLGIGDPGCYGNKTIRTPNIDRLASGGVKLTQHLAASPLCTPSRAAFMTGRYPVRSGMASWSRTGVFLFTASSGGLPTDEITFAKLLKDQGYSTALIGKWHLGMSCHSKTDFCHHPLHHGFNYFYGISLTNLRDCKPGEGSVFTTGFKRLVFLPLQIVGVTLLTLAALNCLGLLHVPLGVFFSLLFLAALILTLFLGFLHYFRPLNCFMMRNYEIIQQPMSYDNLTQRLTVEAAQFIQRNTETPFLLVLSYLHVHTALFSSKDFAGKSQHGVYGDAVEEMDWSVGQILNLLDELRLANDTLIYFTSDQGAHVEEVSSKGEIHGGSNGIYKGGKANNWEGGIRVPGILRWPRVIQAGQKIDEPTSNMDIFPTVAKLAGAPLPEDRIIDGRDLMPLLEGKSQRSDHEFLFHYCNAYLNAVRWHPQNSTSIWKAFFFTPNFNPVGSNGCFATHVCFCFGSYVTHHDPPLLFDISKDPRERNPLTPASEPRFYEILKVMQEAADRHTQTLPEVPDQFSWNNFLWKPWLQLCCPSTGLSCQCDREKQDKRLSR
Nature of the experiment: Steroid sulfatase inhibitory activity (in vitro), microsomal fraction of MCF-7 cells, [3H]estrone-3-sulfate hydrolysis. The class given is biochemical. Also on record: microsomal fraction of MCF-7 human breast cancer cells was used; endogenous in cells; host or cells: MCF-7 human breast cancer cells (microsomal fraction). Conditions: MCF-7 microsomal fraction, 37° C., 30 minutes. The procedure:
(1) Measurement of Steroid Sulfatase Inhibitory Activity (in vitro):
As the source of steroid sulfatase enzyme, microsomal fraction of MCF-7 human breast cancer cells was used.
To phosphate buffered saline (PBS), one of the test compounds, the microsomal fraction and 50 μL of 60 μM estrone-3-sulfate containing about 100 nCi of [6,7-^3H]estrone-3-sulfate (purchased from Perkin Elmer Life Sciences, Boston, Mass., USA; specific activity, 40-60 Ci/mmol) were added to make the total amount of the reaction system 150 μL, which was incubated at 37° C. for 30 minutes. After the incubation, 50 μL of PBS containing about 2 nCi of [4-^14C] estrone (purchased from Perkin Elmer Life Sciences, Boston, Mass., USA; specific activity 45-60 mCi/mmol) was added and stirred. Further 800 μL of toluene was added, and the whole system was thoroughly shaken for 30 seconds, followed by centrifugation at 2,000×g for 10 minutes to separate the acqueous phase from the organic phase. A part (400 μL) of the organic phase was taken and measured of its ^3H and ^14C contents with scintillation spectrometer.
The mass of hydrolyzed [6,7-^3H]estrone-3-sulfate was calculated from the count number of the obtained ^3H (as corrected regarding the amount of the used organic phase and the recovered amount of [4-^14C]estrone) and the specific activity of the substrate ([6,7-^3H]estrone-3-sulfate) to determine the steroid sulfatase inhibitory rate of each test compound.

In experiment [2] the target is T2, steroid sulfatase (Rattus norvegicus, UniProt P15589).
T2 construct: The livers and uteri were separately minced with scissors and suspended in cooled PBS containing 250 mM sucrose; from tissue; host or cells: liver and uterus of ovariectomized female SD rats (2,000 x g supernatant of homogenate)
T2 sequence (P15589 20-577): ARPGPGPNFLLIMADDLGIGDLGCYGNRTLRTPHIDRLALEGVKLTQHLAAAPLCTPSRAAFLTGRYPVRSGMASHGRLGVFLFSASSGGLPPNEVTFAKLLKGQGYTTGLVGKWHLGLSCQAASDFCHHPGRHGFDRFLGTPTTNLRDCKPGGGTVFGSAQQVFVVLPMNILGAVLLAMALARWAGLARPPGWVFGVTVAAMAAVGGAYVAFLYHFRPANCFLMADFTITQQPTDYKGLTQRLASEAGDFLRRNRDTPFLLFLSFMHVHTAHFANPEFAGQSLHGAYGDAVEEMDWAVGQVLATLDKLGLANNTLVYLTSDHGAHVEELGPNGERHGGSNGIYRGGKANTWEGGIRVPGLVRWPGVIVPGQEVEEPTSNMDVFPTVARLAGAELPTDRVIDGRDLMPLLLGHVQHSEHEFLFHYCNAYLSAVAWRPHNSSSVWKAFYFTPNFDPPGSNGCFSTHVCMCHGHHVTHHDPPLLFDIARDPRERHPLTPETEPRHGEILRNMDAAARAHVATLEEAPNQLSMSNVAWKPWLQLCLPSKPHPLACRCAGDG
Nature of the experiment: Steroid sulfatase inhibitory activity (in vivo), liver and uterus of ovariectomized rats after oral dosing. The conditions noted are these: 0.5 mg/kg p.o. once a day for seven days, ovariectomized female SD rats. The procedure:
(2) Measurement of Steroid Sulfatase Inhibitory Activity (in vivo):
To six/group of female SD rats which had undergone ovariectomy, the test compounds as each suspended in 0.5% polyoxyethylene (20) sorbitan monooleate (Tween 80) were orally administered once a day for seven days. On the next day of the last administration, the rats were sacrificed under ether anesthesia. The bodies were anatomized and their livers and uteri were extracted, which were washed with cooled PBS and stored below −70° C. The livers and uteri were separately minced with scissors and suspended in cooled PBS containing 250 mM sucrose. Each of the suspensions was homogenized with a homogenizer under cooling with ice, from which neclei and cell debris were eliminated by centrifugation at 2,000×g for 20 minutes (4° C.). Protein concentration of each of the supernatant was measured by Bradford's method (Anal. Biochem., 72, 248-254 (1976)).
To 2-200 μg of the supernatant protein mass and 50 μL of 60 μM estrone-3-sulfate containing about 100 nCi of [6,7-^3H]estrone-3-sulfate (purchased from Perkin Elmer Life Sciences, Boston, Mass., U.S.A.; specific activity, 40-60 Ci/mmol), PBS was added to make the total amount 150 μL, followed by incubation at 37° C. for 30 minutes. After the incubation, the amount of hydrolyzed [6,7-^3H]estrone-3-sulfate was calculated by a method similar to the in vitro measurement in (1) above. Also steroid sulfatase activity per mg of the protein was calculated, and from the amount of the hydrolyzed [6,7-^3H]estrone-3-sulfate and the calculated steroid sulfatase activity per mg of the protein, the tested compound's steroid sulfatase inhibitory rate was determined.

Consider `NS(=O)(=O)Oc1ccc(N2CCN(CCCC3CCCCC3)CC2)cc1F` [Example 24, 4-[4-(3-cyclohexylpropyl)piperazin-1-yl]-2-fluorophenyl-O-sulfamate], for which, at steroid sulfatase [1] (10^−6 M test compound), the “Inhibitory rate (%) (10^−6 M)” value worked out at 88.8%. Further, the “Inhibitory rate (%) (10^−7 M)” value on steroid sulfatase [1] (10^−7 M test compound) came to 31.1%. For the same compound, at steroid sulfatase [2] (liver), the “Inhibitiory rate (0.5 mg/kg, p.o., %) Liver” value is given as 98.30%. Also, the “Inhibitiory rate (0.5 mg/kg, p.o., %) Uterus” value at steroid sulfatase [2] (uterus) is listed as 97.87%.
